# Measurements from ChEMBL document CHEMBL5465560, “Selectivity Literature for EUbOPEN Chemogenomic Library” (2024).
# How the values were obtained:
# [1] = target: Cyclin-Y/Cyclin-dependent kinase 16 (Homo sapiens) (UniProt Q00536+Q8ND76); assay: Selectivity interaction (ProQinase) EUB0000171b CDK16; format: protein-complex assay
# [2] = target: Death-associated protein kinase 3 (Homo sapiens) (UniProt O43293); assay: Selectivity interaction (KinomeScan (DiscoverX)) EUB0000666a DAPK3; details: at 10 µM
# [3] = target: Macrophage colony-stimulating factor 1 receptor (Homo sapiens) (UniProt P07333); assay: Selectivity interaction (KinomeScan (DiscoverX)) EUB0000666a CSF1R; details: at 10 µM
# Endothelin-1 receptor = Endothelin-1 receptor (Homo sapiens, UniProt P25101); assay: Selectivity interaction (Endothelin A receptor binding assay, human recombinant ) EUB0000877a EDNRA
# [4] = target: Proto-oncogene tyrosine-protein kinase Src (Homo sapiens, UniProt P12931); assay: Selectivity interaction (Kinase panel (Invitrogen)) EUB0000639a SRC; details: at 200 nM
# [5] = target: Serine/threonine-protein kinase Nek4 (Homo sapiens) (UniProt P51957); assay: Selectivity interaction (SelectScreen profiling (Invitrogen)) EUB0000607a NEK4; details: at 2 µM
# [6] = target: Non-receptor tyrosine-protein kinase TYK2 (Homo sapiens, UniProt P29597); assay: Selectivity interaction (KinomeScan (DiscoverX)) EUB0000695a TYK2; details: at 100 nM
# [7] = target: T1, Serine/threonine-protein kinase DCLK3 (Homo sapiens) (UniProt Q9C098); assay: Selectivity interaction (KinomeScan (DiscoverX)) EUB0000045b DCLK3
# T1 sequence (whole entry): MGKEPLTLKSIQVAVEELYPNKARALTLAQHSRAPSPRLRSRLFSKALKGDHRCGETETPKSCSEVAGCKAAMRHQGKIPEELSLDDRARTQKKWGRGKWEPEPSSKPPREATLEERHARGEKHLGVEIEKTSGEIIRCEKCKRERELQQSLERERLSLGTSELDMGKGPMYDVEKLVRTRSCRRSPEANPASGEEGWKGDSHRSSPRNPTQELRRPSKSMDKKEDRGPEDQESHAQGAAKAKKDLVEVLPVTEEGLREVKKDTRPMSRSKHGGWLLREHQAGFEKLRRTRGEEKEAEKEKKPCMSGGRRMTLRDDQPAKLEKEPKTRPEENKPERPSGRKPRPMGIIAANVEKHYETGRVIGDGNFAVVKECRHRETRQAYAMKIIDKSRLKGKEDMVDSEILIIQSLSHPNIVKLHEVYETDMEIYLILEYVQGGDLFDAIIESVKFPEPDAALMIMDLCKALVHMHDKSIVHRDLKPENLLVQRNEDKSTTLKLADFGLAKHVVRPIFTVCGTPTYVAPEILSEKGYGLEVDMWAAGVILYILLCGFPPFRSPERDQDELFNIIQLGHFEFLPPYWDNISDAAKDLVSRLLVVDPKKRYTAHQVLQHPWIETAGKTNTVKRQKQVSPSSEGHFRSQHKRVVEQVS
# [8] = target: Serine/threonine-protein kinase MRCK beta (Homo sapiens) (UniProt Q9Y5S2); assay: Selectivity interaction (KinomeScan (DiscoverX)) EUB0000045b CDC42BPB
# [9] = target: T2, Tyrosine-protein kinase JAK3 (Homo sapiens) (UniProt P52333); assay: Selectivity interaction (Kinase panel (Carna Biosciences)) EUB0001542aTs JAK3; details: at 1 µM
# T2 sequence (whole entry): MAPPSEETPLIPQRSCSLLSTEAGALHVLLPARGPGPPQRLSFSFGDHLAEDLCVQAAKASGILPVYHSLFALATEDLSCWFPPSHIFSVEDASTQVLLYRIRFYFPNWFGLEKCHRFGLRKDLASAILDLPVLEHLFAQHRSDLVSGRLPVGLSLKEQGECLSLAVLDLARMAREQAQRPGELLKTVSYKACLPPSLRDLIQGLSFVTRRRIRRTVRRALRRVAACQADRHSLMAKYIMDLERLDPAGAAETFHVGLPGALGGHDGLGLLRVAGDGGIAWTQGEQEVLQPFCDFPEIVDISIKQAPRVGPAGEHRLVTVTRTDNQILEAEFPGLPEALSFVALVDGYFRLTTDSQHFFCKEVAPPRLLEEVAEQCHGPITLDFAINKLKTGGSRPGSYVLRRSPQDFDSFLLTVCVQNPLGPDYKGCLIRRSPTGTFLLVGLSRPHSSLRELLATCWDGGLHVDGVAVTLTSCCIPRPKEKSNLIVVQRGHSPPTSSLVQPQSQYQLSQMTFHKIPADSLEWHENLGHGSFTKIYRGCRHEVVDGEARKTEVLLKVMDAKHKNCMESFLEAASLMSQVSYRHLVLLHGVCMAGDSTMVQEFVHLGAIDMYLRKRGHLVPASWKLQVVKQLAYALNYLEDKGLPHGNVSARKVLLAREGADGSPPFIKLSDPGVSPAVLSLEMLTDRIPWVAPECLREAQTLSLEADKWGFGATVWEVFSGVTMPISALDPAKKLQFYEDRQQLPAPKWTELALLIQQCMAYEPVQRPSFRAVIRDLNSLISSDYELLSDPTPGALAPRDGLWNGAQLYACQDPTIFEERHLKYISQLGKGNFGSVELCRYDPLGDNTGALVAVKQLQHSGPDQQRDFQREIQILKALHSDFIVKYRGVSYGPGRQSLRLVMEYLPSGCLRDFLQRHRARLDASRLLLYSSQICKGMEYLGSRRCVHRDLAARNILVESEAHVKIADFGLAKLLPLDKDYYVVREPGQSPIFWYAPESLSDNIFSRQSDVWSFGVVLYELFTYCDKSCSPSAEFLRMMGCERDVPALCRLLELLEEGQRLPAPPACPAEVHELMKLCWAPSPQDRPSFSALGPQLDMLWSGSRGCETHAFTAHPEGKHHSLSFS
# [10] = target: Mitogen-activated protein kinase 4 (Homo sapiens) (UniProt P31152); assay: Selectivity interaction (Ambit KINOMEscan and KiNATiv profiling in Jurkat cells) EUB0000090b MAPK4; format: cell-based; details: at 1 µM
# [11] = target: Tyrosine-protein kinase JAK1 (Homo sapiens, UniProt P23458); assay: Selectivity interaction (ActivX KiNativ screen (ex vivo kinase selectivity in human PBMCs)) EUB0001619a JAK1; format: cell-based; details: PBMC, at 1 µM
# Chain of Serine/threonine-protein kinase MRCK beta (Homo sapiens) (Q9Y5S2 whole entry): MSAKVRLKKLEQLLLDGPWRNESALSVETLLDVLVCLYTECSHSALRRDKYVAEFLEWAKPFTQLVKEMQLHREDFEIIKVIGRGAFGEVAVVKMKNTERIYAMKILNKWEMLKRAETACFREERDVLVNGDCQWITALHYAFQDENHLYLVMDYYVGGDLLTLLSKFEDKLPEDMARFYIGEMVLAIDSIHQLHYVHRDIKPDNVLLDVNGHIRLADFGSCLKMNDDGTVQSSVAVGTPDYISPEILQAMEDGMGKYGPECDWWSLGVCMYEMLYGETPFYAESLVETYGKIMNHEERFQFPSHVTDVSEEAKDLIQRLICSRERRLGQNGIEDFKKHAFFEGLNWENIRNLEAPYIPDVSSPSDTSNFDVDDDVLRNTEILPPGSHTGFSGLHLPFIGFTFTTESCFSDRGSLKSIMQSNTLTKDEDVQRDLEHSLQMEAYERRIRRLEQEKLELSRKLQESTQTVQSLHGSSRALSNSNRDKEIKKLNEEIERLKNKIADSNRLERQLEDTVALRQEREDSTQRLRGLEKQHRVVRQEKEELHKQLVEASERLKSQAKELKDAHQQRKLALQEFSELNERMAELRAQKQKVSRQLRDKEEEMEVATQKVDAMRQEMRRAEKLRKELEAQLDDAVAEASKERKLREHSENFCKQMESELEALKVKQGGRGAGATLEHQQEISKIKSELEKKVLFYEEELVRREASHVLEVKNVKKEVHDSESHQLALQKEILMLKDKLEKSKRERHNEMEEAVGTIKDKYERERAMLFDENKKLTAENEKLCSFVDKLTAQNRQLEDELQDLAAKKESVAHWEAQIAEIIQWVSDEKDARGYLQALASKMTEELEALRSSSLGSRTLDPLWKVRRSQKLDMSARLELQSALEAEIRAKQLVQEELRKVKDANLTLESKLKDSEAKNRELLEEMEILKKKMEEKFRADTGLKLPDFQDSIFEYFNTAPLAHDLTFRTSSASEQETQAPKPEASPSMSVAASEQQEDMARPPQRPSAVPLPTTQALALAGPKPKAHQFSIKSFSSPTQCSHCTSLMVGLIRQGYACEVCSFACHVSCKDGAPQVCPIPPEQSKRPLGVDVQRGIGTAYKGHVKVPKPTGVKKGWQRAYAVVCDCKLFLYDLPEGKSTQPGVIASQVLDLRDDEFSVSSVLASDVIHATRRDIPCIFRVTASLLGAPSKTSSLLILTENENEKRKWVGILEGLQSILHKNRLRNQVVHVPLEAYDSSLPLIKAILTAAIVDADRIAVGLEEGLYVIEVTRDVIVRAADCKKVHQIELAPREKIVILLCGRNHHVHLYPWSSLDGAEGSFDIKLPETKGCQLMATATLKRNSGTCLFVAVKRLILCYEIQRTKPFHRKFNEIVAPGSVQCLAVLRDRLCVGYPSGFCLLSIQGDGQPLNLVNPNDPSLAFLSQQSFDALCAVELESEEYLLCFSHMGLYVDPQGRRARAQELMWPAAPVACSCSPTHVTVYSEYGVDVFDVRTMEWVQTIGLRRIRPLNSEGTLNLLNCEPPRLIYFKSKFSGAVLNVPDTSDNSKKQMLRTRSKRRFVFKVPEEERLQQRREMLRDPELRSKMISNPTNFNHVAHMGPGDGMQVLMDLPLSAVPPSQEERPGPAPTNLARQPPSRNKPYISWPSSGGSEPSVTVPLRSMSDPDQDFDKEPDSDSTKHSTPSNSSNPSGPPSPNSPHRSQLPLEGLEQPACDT
# Chain of Macrophage colony-stimulating factor 1 receptor (Homo sapiens) (P07333 whole entry): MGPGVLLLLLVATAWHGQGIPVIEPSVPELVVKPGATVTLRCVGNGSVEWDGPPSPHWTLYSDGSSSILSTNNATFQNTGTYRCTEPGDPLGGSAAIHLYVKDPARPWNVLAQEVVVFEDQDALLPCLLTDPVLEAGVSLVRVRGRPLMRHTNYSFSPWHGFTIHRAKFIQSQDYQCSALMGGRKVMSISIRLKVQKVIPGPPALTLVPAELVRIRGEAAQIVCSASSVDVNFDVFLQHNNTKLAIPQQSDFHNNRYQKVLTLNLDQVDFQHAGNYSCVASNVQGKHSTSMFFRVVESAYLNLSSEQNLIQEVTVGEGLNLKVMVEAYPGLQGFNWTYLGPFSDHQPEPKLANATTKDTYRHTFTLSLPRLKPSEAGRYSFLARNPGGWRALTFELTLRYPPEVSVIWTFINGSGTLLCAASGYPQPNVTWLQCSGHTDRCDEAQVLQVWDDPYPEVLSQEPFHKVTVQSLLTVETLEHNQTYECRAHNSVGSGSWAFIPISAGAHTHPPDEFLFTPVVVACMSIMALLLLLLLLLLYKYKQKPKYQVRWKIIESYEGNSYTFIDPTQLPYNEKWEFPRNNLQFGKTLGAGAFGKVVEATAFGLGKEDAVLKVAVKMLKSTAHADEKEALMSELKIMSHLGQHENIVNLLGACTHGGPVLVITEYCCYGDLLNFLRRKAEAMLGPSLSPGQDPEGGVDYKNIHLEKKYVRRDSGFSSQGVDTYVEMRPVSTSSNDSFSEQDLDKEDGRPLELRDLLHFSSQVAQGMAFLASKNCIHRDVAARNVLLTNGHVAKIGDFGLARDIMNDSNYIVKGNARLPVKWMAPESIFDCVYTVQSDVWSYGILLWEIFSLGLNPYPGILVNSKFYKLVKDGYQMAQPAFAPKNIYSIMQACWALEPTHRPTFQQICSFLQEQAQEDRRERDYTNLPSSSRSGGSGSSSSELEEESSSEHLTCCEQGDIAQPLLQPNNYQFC
# Chain of Mitogen-activated protein kinase 4 (Homo sapiens) (P31152 whole entry): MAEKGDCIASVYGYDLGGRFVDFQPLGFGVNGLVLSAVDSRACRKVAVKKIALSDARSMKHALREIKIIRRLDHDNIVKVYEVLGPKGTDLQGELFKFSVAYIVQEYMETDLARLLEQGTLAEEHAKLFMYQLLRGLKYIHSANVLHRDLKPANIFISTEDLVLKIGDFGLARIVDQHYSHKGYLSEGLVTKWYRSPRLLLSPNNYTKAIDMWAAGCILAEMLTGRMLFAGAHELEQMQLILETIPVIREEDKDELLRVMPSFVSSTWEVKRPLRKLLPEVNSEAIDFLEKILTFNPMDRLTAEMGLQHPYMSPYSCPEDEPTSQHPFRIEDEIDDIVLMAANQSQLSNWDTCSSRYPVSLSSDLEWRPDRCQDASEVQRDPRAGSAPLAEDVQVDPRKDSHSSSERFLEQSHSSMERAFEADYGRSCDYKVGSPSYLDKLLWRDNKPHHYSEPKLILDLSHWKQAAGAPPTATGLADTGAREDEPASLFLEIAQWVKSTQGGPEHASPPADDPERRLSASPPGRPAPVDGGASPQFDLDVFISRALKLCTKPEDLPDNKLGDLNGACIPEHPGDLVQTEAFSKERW
# Chain of Serine/threonine-protein kinase Nek4 (Homo sapiens) (P51957 whole entry, looked up): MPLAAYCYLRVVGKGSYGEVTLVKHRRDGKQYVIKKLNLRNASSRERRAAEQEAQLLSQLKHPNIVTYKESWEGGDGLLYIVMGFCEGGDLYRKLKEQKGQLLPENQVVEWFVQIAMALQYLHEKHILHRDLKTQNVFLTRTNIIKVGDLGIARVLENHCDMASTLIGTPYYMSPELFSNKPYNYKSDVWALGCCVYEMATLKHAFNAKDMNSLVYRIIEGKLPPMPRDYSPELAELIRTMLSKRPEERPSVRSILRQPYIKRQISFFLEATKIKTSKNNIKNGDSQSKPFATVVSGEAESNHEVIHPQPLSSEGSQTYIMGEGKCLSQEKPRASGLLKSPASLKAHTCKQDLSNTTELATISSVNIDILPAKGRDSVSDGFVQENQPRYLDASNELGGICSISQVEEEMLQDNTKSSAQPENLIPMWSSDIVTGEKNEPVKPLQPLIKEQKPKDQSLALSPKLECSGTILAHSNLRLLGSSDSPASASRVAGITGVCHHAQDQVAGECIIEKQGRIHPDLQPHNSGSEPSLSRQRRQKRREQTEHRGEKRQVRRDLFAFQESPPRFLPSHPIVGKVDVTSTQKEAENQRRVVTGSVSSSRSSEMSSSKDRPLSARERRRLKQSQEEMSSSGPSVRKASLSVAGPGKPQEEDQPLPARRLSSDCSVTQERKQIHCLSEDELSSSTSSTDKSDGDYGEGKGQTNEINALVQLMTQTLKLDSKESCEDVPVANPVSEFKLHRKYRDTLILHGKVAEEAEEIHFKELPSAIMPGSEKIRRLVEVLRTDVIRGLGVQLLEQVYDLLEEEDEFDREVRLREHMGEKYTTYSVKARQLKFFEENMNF
# Chain of Endothelin-1 receptor (P25101 whole entry): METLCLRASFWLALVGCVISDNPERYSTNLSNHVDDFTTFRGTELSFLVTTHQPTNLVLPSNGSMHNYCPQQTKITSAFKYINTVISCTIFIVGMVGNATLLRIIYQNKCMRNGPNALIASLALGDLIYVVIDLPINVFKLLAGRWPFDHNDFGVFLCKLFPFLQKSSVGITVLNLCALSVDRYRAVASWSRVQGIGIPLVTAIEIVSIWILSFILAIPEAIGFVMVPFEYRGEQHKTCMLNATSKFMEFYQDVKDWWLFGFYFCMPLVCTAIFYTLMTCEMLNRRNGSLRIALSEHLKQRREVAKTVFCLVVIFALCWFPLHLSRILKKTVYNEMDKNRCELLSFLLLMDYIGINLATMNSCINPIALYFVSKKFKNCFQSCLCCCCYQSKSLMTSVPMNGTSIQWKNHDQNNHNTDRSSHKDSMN
# Chain of Death-associated protein kinase 3 (Homo sapiens) (O43293 whole entry, looked up): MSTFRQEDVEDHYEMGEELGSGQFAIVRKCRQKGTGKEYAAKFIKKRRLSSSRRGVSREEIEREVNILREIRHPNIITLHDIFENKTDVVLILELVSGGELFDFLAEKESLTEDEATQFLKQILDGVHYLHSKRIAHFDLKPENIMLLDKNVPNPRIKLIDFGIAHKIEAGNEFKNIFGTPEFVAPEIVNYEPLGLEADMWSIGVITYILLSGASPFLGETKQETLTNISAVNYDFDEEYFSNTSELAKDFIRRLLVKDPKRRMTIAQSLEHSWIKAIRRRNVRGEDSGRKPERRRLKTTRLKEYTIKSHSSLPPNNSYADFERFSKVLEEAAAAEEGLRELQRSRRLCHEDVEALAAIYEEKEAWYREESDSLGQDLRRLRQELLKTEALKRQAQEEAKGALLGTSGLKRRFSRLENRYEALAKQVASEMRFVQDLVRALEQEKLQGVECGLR
compound,measurement,setting,value
C=CC(=O)Nc1cccc(C(=O)Nc2ccc(Nc3cc(-c4[nH]c(SC)nc4C)ccn3)cc2)c1,% of control,[1]; at 1 µM,88%
same,% of control,[1]; at 5 µM,87%
O=C(NOC[C@H](O)CO)c1ccc(F)c(F)c1Nc1ccc(I)cc1F,% of control,[2],100%
same,% of control,[3],100%
CCC(=O)N1CC[C@H](Nc2ncnc3c2CN(c2cnc(OC)c(C(F)(F)F)c2)CC3)C1 [LENIOLISIB],IC50,Endothelin-1 receptor,> 30 µM
CC[C@@H]1[C@H](F)C(=O)N[C@@H]1COc1nccc2cc(C(N)=O)c(OC)cc12 [ZIMLOVISERTIB],% of inhibition,[4],14.4%
CNC(=O)Nc1ccc(-c2nc(N3CC4CCC(C3)O4)c3cnn(C4CCC5(CC4)OCCO5)c3n2)cc1,% of inhibition,[5],7%
Cc1cc(F)c(C(=O)Nc2cccc(-c3nncn3C(C)C)n2)cc1-n1cnc(C2CC2)c1,% of control,[6],81%
C=CC(=O)Nc1cc(-n2c(=O)ccc3cnc4ccc(-c5ccc(NS(C)(=O)=O)cc5)cc4c32)ccc1C,% of control,[7]; at 1 µM,94%
same,% of control,[7]; at 10 µM,78%
same,% of control,[8]; at 1 µM,100%
same,% of control,[8]; at 10 µM,100%
Cn1cc(Nc2nccc(N3CC4CCC(C3)N4C(=O)[C@@H]3CC3(F)F)n2)cn1,% of inhibition,[9],92%
CN(C)C/C=C/C(=O)Nc1ccc(C(=O)N2CCCC(Nc3ncc(Cl)c(-c4c[nH]c5ccccc45)n3)C2)cc1 (stereo not given),% of control,[10],64%
N#Cc1cccc(-c2c[nH]c3ncnc(N4CCOCC4)c23)c1,% of inhibition,[11],5%
